Measurements from patent publication US20040229791A1, “Compositions and methods of modulating TGF-beta activity by fatty acids” (priority 2002, published 2004).

Target: T1, TGF-β2-α2M* complex (Homo sapiens, UniProt P01023)
T1 construct: was purified from pooled citrate-treate human plasma; from tissue; host or cells: pooled citrate-treated human plasma
T1 sequence (P01023 24-1474): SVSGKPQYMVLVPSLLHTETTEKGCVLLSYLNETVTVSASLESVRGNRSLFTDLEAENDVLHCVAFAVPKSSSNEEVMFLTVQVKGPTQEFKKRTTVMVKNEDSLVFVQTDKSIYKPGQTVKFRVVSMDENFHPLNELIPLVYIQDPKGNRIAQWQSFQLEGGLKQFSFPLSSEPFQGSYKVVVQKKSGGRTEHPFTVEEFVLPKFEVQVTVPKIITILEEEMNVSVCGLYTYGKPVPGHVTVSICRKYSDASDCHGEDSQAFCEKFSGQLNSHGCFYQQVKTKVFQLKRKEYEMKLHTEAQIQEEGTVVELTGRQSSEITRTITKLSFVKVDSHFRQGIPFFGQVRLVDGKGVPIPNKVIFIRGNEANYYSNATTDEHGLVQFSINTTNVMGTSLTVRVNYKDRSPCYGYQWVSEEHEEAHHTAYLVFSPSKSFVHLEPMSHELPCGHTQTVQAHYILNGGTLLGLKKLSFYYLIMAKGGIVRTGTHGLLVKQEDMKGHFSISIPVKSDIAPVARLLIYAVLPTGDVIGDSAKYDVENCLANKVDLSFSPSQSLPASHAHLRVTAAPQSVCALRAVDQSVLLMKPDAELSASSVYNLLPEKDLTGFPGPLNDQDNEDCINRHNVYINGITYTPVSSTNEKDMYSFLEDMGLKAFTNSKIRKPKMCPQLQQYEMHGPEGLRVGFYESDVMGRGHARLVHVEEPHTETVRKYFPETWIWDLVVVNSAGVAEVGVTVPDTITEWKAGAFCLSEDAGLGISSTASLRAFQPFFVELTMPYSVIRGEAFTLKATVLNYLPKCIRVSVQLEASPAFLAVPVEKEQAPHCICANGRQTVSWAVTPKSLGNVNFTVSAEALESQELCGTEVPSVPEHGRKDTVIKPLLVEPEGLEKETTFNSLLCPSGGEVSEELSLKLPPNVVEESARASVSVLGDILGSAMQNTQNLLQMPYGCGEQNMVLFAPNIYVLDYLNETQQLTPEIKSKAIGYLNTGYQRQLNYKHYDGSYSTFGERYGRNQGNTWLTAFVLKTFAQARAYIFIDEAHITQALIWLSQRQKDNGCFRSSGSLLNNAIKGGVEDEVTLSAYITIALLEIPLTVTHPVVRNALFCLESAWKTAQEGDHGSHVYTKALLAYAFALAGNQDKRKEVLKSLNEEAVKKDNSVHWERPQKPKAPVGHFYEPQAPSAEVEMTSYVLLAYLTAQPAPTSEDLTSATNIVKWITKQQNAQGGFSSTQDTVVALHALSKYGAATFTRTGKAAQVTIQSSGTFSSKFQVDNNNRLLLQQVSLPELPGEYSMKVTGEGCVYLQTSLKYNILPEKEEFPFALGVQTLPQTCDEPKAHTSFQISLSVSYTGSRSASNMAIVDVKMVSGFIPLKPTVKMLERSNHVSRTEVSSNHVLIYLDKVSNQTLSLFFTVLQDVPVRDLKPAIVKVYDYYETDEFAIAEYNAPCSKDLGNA
Experiment: Inhibition of 125I-TGF-β2 and α2M* complex formation (5% non-denaturing PAGE)
Format: binding
Details: 50% inhibition; read-out: concentration that inhibited 50% of the complex formation of α2M* and 125I-TGF-β2
Procedure: TGF- ? isoforms bind to α2M* with different affinities: TGF ? β2>TGF ? β1 ( active sites of TGF ? β1 and TGF- ? 2 responsible for high-affinity binding to ? 2M* are disti from the low-affinity ? 2M* binding site in TGF- ? 3 (19). To determine if fatty acids differentially affect the binding of TGF- ? isoforms to ? 2M*, the effects of various concentrations of arachidonic acid and myristic acid on complex formation of ^125I-labeled TGF ? β isoforms and ? 2M were determined*. […] It inhibited 30% of the complex form . α2M* and TGF ? β2 and TGF ? β3 at 100 and >250 μM, respectively. Arachidon polyunsaturated fatty acid, was a stronger inhibitor of complex formation of ? 2M* and TGF-.β2/TGF ? β3. It inhibited 50% of the complex formation of ? 2M* and ^125I-TGF- ? 2 at 50 μM (FIG. 3A). The observation that myristic acid and arachidonic acid inhibited complex formation of ^125I-TGF- ? […] 2M* complexes in the reaction mixtures were then analyzed by 7.5% SDS-PAGE and autoradiography.
Complex formation of ^125I-TGF-β and ? […] After 30 min at room temperature, the complex formation of ^125I-TGF- ? and. α2M* was determined by 5% non-denaturing polyacrylamide gel electrophoresis (PAGE) or by 7.5% SDS-PAGE following cross-linking by 0.6 mM DSS. After electrophoresis, the gel was stained with Coomassie blue and analyzed by autoradiography. […] 2M* was quantified using a PhosphoImager (Fuji).

`CCCCC/C=C\C/C=C\C/C=C\C/C=C\CCCC(=O)O` [arachidonic acid] gave an IC50 of 50 µM.
